These are literature values, as cited in patent US5681581A, “Controlled release pharmaceutical formulations of 3'-azido-3'-deoxythymidine and methods of use” (priority 1995, dated 1997).

Entries after “also recorded” stand apart in the source; their conditions may differ.

Data set [1] relates to cells of HIV infected patients. Conditions: HIV infected patients taking AZT.
In another data set the test system is reverse transcriptase. The note with it: result in words.
For data set [2] the following is noted: capsules and liquid solutions, oral.
Data set [3] concerns HIV.
For data set [4] the following is noted: animals.
The test system of data set [5] is HIV. The note with it: result in words.
A further data set deals with bone marrow cells. Conditions: than AZT.
The conditions of data set [6]: result in words.
For data set [7] the following is noted: intravenous AZT 2.5 mg/kg, patients.
A further data set relates to DNA polymerase. Conditions: result in words.

In the case of `Cc1cn([C@H]2C[C@H](N=[N+]=[N-])[C@@H](CO)O2)c(=O)[nH]c1=O` [AZT, 3'-azido-3'-deoxythymidine], in [1], the “relationship between phosphorylated AZT and dosage or blood levels” value is recorded as “showed no relationship”. Besides, the “inhibition of reverse transcriptase” value with reverse transcriptase is listed as “inhibitor of reverse transcriptase”. In data set [2], the “absorption from the gastrointestinal tract” value is listed as “rapidly absorbed”. Besides, in the data set with HIV [3] (1500 mg per day), the “effectiveness in asymptomatic sero-positive patients” value is reported as “not as effective as 500 mg per day”. The toxicity of dose entry in the data set on HIV [3] (human, in vivo) was “too toxic”. The “AMT levels by oral route” value in data set [4] is “higher levels of AMT”.

`Cc1cn([C@H]2C[C@H](N=[N+]=[N-])[C@@H](COP(=O)(O)OP(=O)(O)OP(=O)(O)O)O2)c(=O)[nH]c1=O` [triphosphate form]: in the data set with HIV [5], the “inhibitory effect on viral transcription” value was “most inhibitory effect”.

In the case of `Cc1cn([C@H]2C[C@H](N)[C@@H](CO)O2)c(=O)[nH]c1=O` [AMT, 3'-amino-3'-deoxythymidine], in the data set on HIV [5], the antiviral activity result is recorded as “no antiviral activity; also recorded: poor antiviral activity” and the “effect on the anti-HIV action of AZT” value was “antagonistic effect”. In addition, in the data set with bone marrow cells, the “toxicity to bone marrow cells relative to AZT” value is given as 5-7 times more toxic. Moreover, the anti-cancer effects result in [6] is on record as “potent anti-cancer effects”. In addition, the “binding of the reverse transcriptase enzyme” value in the data set with reverse transcriptase is given as “competitive binding”. In addition, in [7], the “AMT level relative to AZT by AUC” value is on record as “about twenty”.

`Cc1cn([C@H]2C[C@H](N)[C@@H](COP(=O)(O)OP(=O)(O)OP(=O)(O)O)O2)c(=O)[nH]c1=O` [AMT 5'triphosphate]: the “inhibition of DNA polymerase” value in the data set on DNA polymerase is on record as “inhibitor of DNA polymerase”. For the same compound, the “inhibition of reverse transcriptase” value with reverse transcriptase is on record as “inhibitor of HIV reverse transcriptase”.
